Experimental data published in patent publication US20260207578A1, “COMPOUND BASED ON SULFUR/OXYGEN SUBSTITUTED GLUTARIMIDE-BASED ISOINDOLINONE SKELETON AND USE THEREOF” (Gluetacs Therapeutics (Shanghai) Co., LTD., priority 2022, published 2026).

Legend:
IKZF3 = target: T1, IKZF3 (Homo sapiens, UniProt Q96SW2+Q9UKT9); assay: Western-blot assay, substrate protein in hPBMCs; format: cell-based; conditions: hPBMC cells, 24 hours, tested at 50 nM and 500 nM, table does not say which
T1 construct: endogenous in cells; host or cells: human PBMCs (Milecell Biotechnologies)
T1 sequence (Q9UKT9 whole entry): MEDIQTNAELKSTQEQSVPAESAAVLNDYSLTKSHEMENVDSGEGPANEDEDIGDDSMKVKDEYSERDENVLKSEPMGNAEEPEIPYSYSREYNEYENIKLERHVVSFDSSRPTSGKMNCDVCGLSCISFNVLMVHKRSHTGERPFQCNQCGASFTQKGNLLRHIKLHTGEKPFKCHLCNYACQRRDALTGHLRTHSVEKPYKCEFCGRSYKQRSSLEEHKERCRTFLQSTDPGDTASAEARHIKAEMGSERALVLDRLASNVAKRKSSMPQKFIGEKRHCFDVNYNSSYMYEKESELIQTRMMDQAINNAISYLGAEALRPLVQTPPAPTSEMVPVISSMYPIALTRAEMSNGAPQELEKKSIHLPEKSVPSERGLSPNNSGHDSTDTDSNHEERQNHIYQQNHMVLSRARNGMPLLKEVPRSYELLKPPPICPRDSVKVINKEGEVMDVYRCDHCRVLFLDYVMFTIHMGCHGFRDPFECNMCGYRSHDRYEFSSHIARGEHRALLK
T1 sequence (Q96SW2 whole entry): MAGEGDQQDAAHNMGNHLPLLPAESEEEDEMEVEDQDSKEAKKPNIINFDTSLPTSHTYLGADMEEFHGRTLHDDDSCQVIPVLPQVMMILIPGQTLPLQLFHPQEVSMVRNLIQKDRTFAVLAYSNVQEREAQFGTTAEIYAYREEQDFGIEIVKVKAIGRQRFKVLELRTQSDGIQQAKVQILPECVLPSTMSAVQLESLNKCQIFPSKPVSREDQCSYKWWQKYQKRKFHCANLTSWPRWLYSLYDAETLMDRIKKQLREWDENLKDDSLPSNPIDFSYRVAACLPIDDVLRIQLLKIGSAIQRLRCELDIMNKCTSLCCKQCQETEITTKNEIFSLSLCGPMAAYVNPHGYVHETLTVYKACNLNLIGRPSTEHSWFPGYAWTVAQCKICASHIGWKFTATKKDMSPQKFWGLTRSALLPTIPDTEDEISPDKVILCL
T1 sequence (Q16531 whole entry partner): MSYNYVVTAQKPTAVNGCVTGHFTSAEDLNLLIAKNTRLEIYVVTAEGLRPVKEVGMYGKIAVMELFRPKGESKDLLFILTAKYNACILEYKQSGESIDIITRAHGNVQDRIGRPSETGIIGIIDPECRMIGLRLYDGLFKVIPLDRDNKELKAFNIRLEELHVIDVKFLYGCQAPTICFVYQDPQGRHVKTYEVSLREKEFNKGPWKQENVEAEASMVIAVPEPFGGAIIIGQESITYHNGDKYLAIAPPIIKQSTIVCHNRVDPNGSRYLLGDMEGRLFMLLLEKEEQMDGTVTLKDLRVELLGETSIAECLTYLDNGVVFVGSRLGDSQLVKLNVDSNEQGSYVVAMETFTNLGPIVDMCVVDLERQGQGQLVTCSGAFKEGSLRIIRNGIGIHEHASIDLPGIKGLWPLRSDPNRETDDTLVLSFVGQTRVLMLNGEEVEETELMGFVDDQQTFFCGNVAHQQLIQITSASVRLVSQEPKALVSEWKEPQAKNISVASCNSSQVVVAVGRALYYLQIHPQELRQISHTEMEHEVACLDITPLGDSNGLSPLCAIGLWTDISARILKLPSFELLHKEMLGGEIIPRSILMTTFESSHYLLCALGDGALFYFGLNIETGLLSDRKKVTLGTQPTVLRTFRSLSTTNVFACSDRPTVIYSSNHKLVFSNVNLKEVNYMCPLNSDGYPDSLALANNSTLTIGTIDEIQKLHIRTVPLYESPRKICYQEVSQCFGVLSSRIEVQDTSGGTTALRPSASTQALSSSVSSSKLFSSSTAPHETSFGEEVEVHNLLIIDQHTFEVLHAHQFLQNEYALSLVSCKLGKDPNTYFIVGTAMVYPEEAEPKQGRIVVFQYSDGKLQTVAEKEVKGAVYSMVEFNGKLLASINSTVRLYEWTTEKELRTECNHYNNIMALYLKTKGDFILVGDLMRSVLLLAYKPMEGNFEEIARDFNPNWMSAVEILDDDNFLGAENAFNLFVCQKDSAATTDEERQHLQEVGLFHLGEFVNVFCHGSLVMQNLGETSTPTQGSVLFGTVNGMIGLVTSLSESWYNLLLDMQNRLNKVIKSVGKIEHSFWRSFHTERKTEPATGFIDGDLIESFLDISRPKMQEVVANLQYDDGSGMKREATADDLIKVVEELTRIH
Procedure: (§1) The effect of the compounds of the present disclosure on the expression of target proteins in cells was detected using conventional Western blot analysis.
(§2) Human peripheral blood mononuclear cells (hPBMCs) at a density of 1×10^6 cells/mL were thawed according to the PBMC Recovery Protocol (Milecell Biotechnologies Inc, Shanghai). The cells were then treated with the compounds of the present disclosure (including the compounds listed in Tables 1 and 2, and the Examples A1-A20 and 1-116 compounds) at concentrations of 50 nM and 500 nM.
(§3) Controls included a negative control (DMSO) and a positive control (the commercial immunomodulatory drug lenalidomide), both processed following the identical experimental protocol as the compounds of the present disclosure. After 24 hours of compounds treatment, cells were harvested and lysed in RIPA protein lysate containing phosphatase inhibitors on ice for 30-60 min, followed by centrifugation. The supernatant was aspirated as the extracted total cell protein. The protein concentration of the supernatant was determined using the conventional BCA (Bicinchoninic Acid) assay. The supernatant was then mixed with 4× SDS sample loading buffer, denatured at 95° C. for 5 minutes, and then subjected to SDS-PAGE electrophoresis on a polyacrylamide gel. Proteins were then transferred to a nitrocellulose (NC) membrane, blocked at room temperature for 1-2 h, and processed for antibody incubation and detection according to the manufacturer's instructions (Cell Signaling Technology).
(§4) Half-Maximal Degradation Concentration value (the drug concentration required for degrading proteins by 50%, abbreviated as DC50) reads method: comparing the grayscale values of Western blot bands from drug-treated samples with those from blank DMSO-treated controls, and identifying the drug concentration range at which the grayscale value is half that of the DMSO-treated control bands.
(§5) DC50 values can be calculated using ImageJ software to measure grayscale values of Western blot bands from drug-treated samples. The concentration-response curve is fitted to estimate the drug concentration corresponding to half the grayscale value.
(§6) Target protein remaining (%) refers to the percentage of target protein remaining in hPBMC cells after treatment with protein degrader compounds.
(§7) Calculation method for protein remaining (%): Use ImageJ software to measure grayscale values of Western blot bands from drug (protein degrader)-treated samples. The grayscale value of drug-treated bands is divided by that of internal control protein bands, and the resulting quotient is normalized to obtain the relative percentage of remaining target protein after protein degrader treatment.
(§8) Target protein degradation rate (%)=100%−target protein remaining (%).

IKZF2 = target: T2, IKZF2 (Homo sapiens, UniProt Q96SW2+Q9UKS7); assay: Western-blot assay, substrate protein in hPBMCs; format: cell-based; conditions: hPBMC cells, 24 hours, tested at 50 nM and 500 nM, table does not say which
T2 construct: endogenous in cells; host or cells: human PBMCs (Milecell Biotechnologies)
Outline: (§9)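 Protein levels read by Western blot of lysates from human PBMCs (1×10^6 cells/mL) treated 24 h. Percent remaining is target band over loading-control band, normalised to DMSO-treated cells; DC50 is the concentration halving DMSO-control band intensity, estimated by curve fit.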

Wee1 = target: T3, Wee1 (Homo sapiens, UniProt P30291+Q96SW2); assay: Western-blot assay, substrate protein in hPBMCs; format: cell-based; conditions: hPBMC cells, 24 hours, tested at 50 nM and 500 nM, table does not say which
T3 construct: endogenous in cells; host or cells: human PBMCs (Milecell Biotechnologies)
T3 sequence (P30291 whole entry): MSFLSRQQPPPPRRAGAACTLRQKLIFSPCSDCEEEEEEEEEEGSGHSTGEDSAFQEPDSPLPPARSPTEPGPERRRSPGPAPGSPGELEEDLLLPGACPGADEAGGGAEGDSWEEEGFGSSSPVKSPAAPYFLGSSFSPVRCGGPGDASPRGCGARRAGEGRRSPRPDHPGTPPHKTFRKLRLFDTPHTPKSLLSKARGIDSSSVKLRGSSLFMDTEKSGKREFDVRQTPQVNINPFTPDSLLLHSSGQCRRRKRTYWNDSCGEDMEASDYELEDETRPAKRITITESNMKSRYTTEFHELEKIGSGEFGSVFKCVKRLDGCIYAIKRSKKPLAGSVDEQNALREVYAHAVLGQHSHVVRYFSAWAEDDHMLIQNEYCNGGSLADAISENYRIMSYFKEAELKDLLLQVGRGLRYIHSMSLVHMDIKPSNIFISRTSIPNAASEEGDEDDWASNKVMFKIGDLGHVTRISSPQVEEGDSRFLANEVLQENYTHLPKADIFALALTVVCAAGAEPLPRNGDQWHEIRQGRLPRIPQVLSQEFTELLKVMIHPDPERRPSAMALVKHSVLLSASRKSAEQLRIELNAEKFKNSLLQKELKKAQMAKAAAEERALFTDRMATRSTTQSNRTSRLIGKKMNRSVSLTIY
T3 sequence (Q96SW2 whole entry): as the sequence (Q96SW2 whole entry) above
T3 sequence (Q16531 whole entry partner): as the sequence (Q16531 whole entry partner) above
Outline: as §9

GSPT1 = target: T4, GSPT1 (Homo sapiens, UniProt P15170+Q96SW2); assay: Western-blot assay, substrate protein in hPBMCs; format: cell-based; conditions: hPBMC cells, 24 hours, tested at 50 nM and 500 nM, table does not say which
T4 construct: endogenous in cells; host or cells: human PBMCs (Milecell Biotechnologies)
T4 sequence (P15170 whole entry): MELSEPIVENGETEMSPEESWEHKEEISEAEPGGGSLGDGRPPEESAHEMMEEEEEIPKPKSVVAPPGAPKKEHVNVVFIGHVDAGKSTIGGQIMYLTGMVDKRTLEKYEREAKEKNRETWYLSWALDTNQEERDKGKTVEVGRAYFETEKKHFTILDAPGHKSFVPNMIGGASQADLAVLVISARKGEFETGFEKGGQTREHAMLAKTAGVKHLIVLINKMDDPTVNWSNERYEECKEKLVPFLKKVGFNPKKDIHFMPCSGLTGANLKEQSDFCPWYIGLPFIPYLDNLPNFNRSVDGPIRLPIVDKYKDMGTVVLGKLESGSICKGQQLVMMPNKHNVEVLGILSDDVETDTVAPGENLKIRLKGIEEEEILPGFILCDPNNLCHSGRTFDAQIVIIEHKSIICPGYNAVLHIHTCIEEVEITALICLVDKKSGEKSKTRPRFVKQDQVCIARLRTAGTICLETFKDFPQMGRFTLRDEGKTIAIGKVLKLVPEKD
T4 sequence (Q96SW2 whole entry): as the sequence (Q96SW2 whole entry) above
T4 sequence (Q16531 whole entry partner): as the sequence (Q16531 whole entry partner) above
Outline: as §9

CK1α = target: T5, CK1α (Homo sapiens, UniProt P48729+Q96SW2); assay: Western-blot assay, substrate protein in hPBMCs; format: cell-based; conditions: hPBMC cells, 24 hours, tested at 50 nM and 500 nM, table does not say which
T5 construct: endogenous in cells; host or cells: human PBMCs (Milecell Biotechnologies)
T5 sequence (P48729 whole entry): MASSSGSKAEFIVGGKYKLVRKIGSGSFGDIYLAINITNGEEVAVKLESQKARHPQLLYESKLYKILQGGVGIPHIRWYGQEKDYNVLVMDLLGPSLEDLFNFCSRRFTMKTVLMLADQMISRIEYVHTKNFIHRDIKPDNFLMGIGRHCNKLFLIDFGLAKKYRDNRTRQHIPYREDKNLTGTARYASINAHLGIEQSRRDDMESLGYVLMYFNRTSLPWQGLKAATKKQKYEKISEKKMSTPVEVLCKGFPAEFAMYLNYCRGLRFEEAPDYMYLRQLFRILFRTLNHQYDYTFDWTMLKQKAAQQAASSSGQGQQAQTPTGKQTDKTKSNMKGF
T5 sequence (Q96SW2 whole entry): as the sequence (Q96SW2 whole entry) above
T5 sequence (Q16531 whole entry partner): as the sequence (Q16531 whole entry partner) above
Outline: as §9

[1] = target: T6, human Cereblon WT GST-tagged protein (Homo sapiens, UniProt Q96SW2); assay: CRBN-binding affinity, HTRF (CEREBLON BINDING kit); conditions: displacement of Thalidomide-Re reagent, 3 hours at room temperature
T6 construct: purchased CISBIO 64BDCRBNPEH
T6 sequence (Q96SW2 whole entry): as the sequence (Q96SW2 whole entry) above
Outline: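 HTRF competition format: compound, GST-tagged wild-type human Cereblon, Thalidomide-Re tracer and GST Eu antibody were combined in PROTAC binding buffer. Binding was derived from emission at 620 nm relative to blank and solvent control wells.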

IKZF1 = target: T7, IKZF1 (Homo sapiens, UniProt Q13422+Q96SW2); assay: Western-blot assay, substrate protein in hPBMCs; format: cell-based; conditions: hPBMC cells, 24 hours, tested at 50 nM and 500 nM, table does not say which
T7 construct: endogenous in cells; host or cells: human PBMCs (Milecell Biotechnologies)
T7 sequence (Q13422 whole entry): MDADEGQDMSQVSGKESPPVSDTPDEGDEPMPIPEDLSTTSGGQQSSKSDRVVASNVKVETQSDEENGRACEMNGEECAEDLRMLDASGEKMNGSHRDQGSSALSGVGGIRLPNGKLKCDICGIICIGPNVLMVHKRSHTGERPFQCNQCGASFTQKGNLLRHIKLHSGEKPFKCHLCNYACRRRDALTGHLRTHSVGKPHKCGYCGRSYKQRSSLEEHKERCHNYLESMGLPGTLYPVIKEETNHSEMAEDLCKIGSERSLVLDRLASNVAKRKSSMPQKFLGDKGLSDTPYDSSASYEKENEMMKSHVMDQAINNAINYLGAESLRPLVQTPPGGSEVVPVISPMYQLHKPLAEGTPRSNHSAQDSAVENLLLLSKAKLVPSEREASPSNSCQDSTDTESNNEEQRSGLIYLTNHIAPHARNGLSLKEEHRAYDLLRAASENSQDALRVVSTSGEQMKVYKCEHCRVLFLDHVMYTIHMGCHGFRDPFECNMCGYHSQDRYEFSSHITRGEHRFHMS
T7 sequence (Q96SW2 whole entry): as the sequence (Q96SW2 whole entry) above
T7 sequence (Q16531 whole entry partner): as the sequence (Q16531 whole entry partner) above
Procedure: as §1, §2, §3, §4, §5, §6, §7, §8

Compound: O=C1CCC(N2Cc3cc(SC4CN(CC5=C(c6ccc(Cl)cc6)CCC(F)(F)C5)C4)ccc3C2=O)C(=O)N1 (stereo not shown) [GT-06516, 3-(5-((1-((4′-chloro-4,4-difluoro-3,4,5,6-tetrahydro-[1,1′-biphenyl]-2-yl)methyl)azetidin-3-yl)thio)-1-oxoisoindolin-2-yl)piperidine-2,6-dione]
- substrate protein remaining % (IKZF3): A (0%≤ substrate protein remaining % ≤80%)
- substrate protein remaining % (IKZF2): A (0%≤ substrate protein remaining % ≤80%)
- substrate protein remaining % (Wee1): A (0%≤ substrate protein remaining % ≤80%)
- substrate protein remaining % (GSPT1): A (0%≤ substrate protein remaining % ≤80%)
- substrate protein remaining % (CK1α): A (0%≤ substrate protein remaining % ≤80%)
- IC50 [1]: 1000 to 1900 nM

Compound: O=C1CCC(N2Cc3cc(OC4CCN(C(c5ccccc5)c5ccccc5)C4)ccc3C2=O)C(=O)N1 (stereo not shown) [GT-06819, 3-(5-((1-benzhydrylpyrrolidin-3-yl)oxy)-1-oxoisoindolin-2-yl)piperidine-2,6-dione]
- substrate protein remaining % (IKZF3): A (0%≤ substrate protein remaining % ≤80%)
- substrate protein remaining % (IKZF2): A (0%≤ substrate protein remaining % ≤80%)
- substrate protein remaining % (Wee1): A (0%≤ substrate protein remaining % ≤80%)
- substrate protein remaining % (GSPT1): A (0%≤ substrate protein remaining % ≤80%)
- substrate protein remaining % (CK1α): A (0%≤ substrate protein remaining % ≤80%)
- IC50 [1]: < 500 nM

Compound: O=C1CCC(N2Cc3cc(OC4CN(C(c5ccccn5)c5ccccn5)C4)ccc3C2=O)C(=O)N1 (stereo not shown) [GT-06814, 3-(5-((1-(di(pyridin-2-yl)methyl)azetidin-3-yl)oxy)-1-oxoisoindolin-2-yl)piperidine-2,6-dione]
- substrate protein remaining % (IKZF3): A (0%≤ substrate protein remaining % ≤80%)
- substrate protein remaining % (IKZF2): A (0%≤ substrate protein remaining % ≤80%)
- substrate protein remaining % (Wee1): A (0%≤ substrate protein remaining % ≤80%)
- substrate protein remaining % (GSPT1): A (0%≤ substrate protein remaining % ≤80%)
- substrate protein remaining % (CK1α): A (0%≤ substrate protein remaining % ≤80%)
- IC50 [1]: < 500 nM

Compound: O=C1CCC(N2Cc3cc(SC4CC5CN(C(c6ccccc6)c6ccccc6)CC5C4)ccc3C2=O)C(=O)N1 (stereo not shown) [GT-06922, 3-(5-((2-benzhydryloctahydro-cyclopenta[c]pyrrol-5-yl)thio)-1-oxoisoindolin-2-yl)piperidine-2,6-dione]
- substrate protein remaining % (IKZF1): A (0%≤ substrate protein remaining % ≤80%)
- substrate protein remaining % (IKZF3): A (0%≤ substrate protein remaining % ≤80%)
- substrate protein remaining % (Wee1): A (0%≤ substrate protein remaining % ≤80%)
- substrate protein remaining % (GSPT1): A (0%≤ substrate protein remaining % ≤80%)
- substrate protein remaining % (CK1α): A (0%≤ substrate protein remaining % ≤80%)
- IC50 [1]: < 500 nM

Compound: O=C1CCC(N2Cc3cc(OC4CCN(C(c5ccccc5)c5ccccc5)CC4)ccc3C2=O)C(=O)N1 (stereo not shown) [GT-06195, 3-(5-((1-benzhydrylpiperidin-4-yl)oxy)-1-oxoisoindolin-2-yl)piperidine-2,6-dione]
- substrate protein remaining % (IKZF1): A (0%≤ substrate protein remaining % ≤80%)
- substrate protein remaining % (IKZF3): A (0%≤ substrate protein remaining % ≤80%)
- substrate protein remaining % (Wee1): A (0%≤ substrate protein remaining % ≤80%)
- substrate protein remaining % (GSPT1): A (0%≤ substrate protein remaining % ≤80%)
- substrate protein remaining % (CK1α): A (0%≤ substrate protein remaining % ≤80%)
- IC50 [1]: < 500 nM

Compound: CC1(C)CCC(CN2CC(Sc3cccc4c3CN(C3CCC(=O)NC3=O)C4=O)C2)=C(c2ccc(Cl)cc2)C1 (stereo not shown) [GT-06515, 3-(4-((1-((4′-chloro-5,5-dimethyl-3,4,5,6-tetrahydro-[1,1′-biphenyl]-2-yl)methyl)azetidin-3-yl)thio)-1-oxoisoindolin-2-yl)piperidine-2,6-dione]
- substrate protein remaining % (IKZF1): A (0%≤ substrate protein remaining % ≤80%)
- substrate protein remaining % (IKZF3): A (0%≤ substrate protein remaining % ≤80%)
- substrate protein remaining % (Wee1): A (0%≤ substrate protein remaining % ≤80%)
- substrate protein remaining % (GSPT1): A (0%≤ substrate protein remaining % ≤80%)
- substrate protein remaining % (CK1α): A (0%≤ substrate protein remaining % ≤80%)
- IC50 [1]: 500 to 1000 nM

Compound: CC1(C)CCC(CN2CC(Oc3cccc4c3CN(C3CCC(=O)NC3=O)C4=O)C2)=C(c2ccc(Cl)cc2)C1 (stereo not shown) [GT-06952, 3-(4-((1-((4′-chloro-5,5-dimethyl-3,4,5,6-tetrahydro-[1,1′-biphenyl]-2-yl)methyl)azetidin-3-yl)oxy)-1-oxoisoindolin-2-yl)piperidine-2,6-dione]
- substrate protein remaining % (IKZF1): A (0%≤ substrate protein remaining % ≤80%)
- substrate protein remaining % (IKZF3): A (0%≤ substrate protein remaining % ≤80%)
- substrate protein remaining % (GSPT1): A (0%≤ substrate protein remaining % ≤80%)
- substrate protein remaining % (CK1α): A (0%≤ substrate protein remaining % ≤80%)
- IC50 [1]: 500 to 1000 nM

Compound: O=C1CCC(N2Cc3cc(OC4CN(CC5=C(c6ccc(Cl)cc6)CCOC5)C4)ccc3C2=O)C(=O)N1 (stereo not shown) [GT-06354, 3-(5-((1-((4-(4-chlorophenyl)-5,6-dihydro-2H-pyran-3-yl)methyl)azetidin-3-yl)oxy)-1-oxoisoindolin-2-yl)piperidine-2,6-dione]
- substrate protein remaining % (IKZF1): A (0%≤ substrate protein remaining % ≤80%)
- substrate protein remaining % (IKZF3): A (0%≤ substrate protein remaining % ≤80%)
- substrate protein remaining % (Wee1): A (0%≤ substrate protein remaining % ≤80%)
- substrate protein remaining % (GSPT1): A (0%≤ substrate protein remaining % ≤80%)
- substrate protein remaining % (CK1α): A (0%≤ substrate protein remaining % ≤80%)
- IC50 [1]: < 500 nM

Compound: O=C1CCC(N2Cc3cc(OC4CN(Cc5cnc(-c6ccccc6)cn5)C4)ccc3C2=O)C(=O)N1 (stereo not shown) [GT-06353, 3-(1-oxo-5-((1-((5-phenylpyrazin-2-yl)methyl)azetidin-3-yl)oxy)isoindolin-2-yl)piperidine-2,6-dione]
- substrate protein remaining % (IKZF1): A (0%≤ substrate protein remaining % ≤80%)
- substrate protein remaining % (IKZF3): A (0%≤ substrate protein remaining % ≤80%)
- substrate protein remaining % (Wee1): A (0%≤ substrate protein remaining % ≤80%)
- substrate protein remaining % (GSPT1): A (0%≤ substrate protein remaining % ≤80%)
- substrate protein remaining % (CK1α): A (0%≤ substrate protein remaining % ≤80%)
- IC50 [1]: 500 to 1000 nM

Compound: CC1(C)CCC(CN2CC(Oc3ccc4c(c3)C(=O)N(C3CCC(=O)NC3=O)C4)C2)=C(c2ccc(Cl)cc2)C1 (stereo not shown) [GT-06872, 3-(6-((1-((4′-chloro-5,5-dimethyl-3,4,5,6-tetrahydro-[1,1′-biphenyl]-2-yl)methyl)azetidin-3-yl)oxy)-1-oxoisoindolin-2-yl)piperidine-2,6-dione]
- substrate protein remaining % (IKZF3): A (0%≤ substrate protein remaining % ≤80%)
- substrate protein remaining % (IKZF2): A (0%≤ substrate protein remaining % ≤80%)
- substrate protein remaining % (Wee1): A (0%≤ substrate protein remaining % ≤80%)
- substrate protein remaining % (GSPT1): A (0%≤ substrate protein remaining % ≤80%)
- substrate protein remaining % (CK1α): A (0%≤ substrate protein remaining % ≤80%)
- IC50 [1]: 1000 to 1900 nM

Compound: CC1(C)CCC(CN2CC(Oc3ccc4c(c3)CN(C3CCC(=O)NC3=O)C4=O)C2)=C(c2ccc(Cl)cc2)C1 (stereo not shown) [GT-03369, 3-(5-((1-((4′-chloro-5,5-dimethyl-3,4,5,6-tetrahydro-[1,1′-biphenyl]-2-yl)methyl)azetidin-3-yl)oxy)-1-oxoisoindolin-2-yl)piperidine-2,6-dione]
- substrate protein remaining % (IKZF1): A (0%≤ substrate protein remaining % ≤80%)
- substrate protein remaining % (IKZF3): A (0%≤ substrate protein remaining % ≤80%)
- substrate protein remaining % (Wee1): A (0%≤ substrate protein remaining % ≤80%)
- substrate protein remaining % (GSPT1): A (0%≤ substrate protein remaining % ≤80%)
- IC50 [1]: 500 to 1000 nM
